Tests used:
[1] = target: T1, ATP-binding cassette sub-family C member 9 (Rattus norvegicus, UniProt Q63563); assay: Binding affinity to the sulfonylurea receptor 2A (SUR2A) in purified membranes of rat-heart myocytes
[2] = target: T1, ATP-binding cassette sub-family C member 9; assay: Binding affinity towards Sulfonylurea receptor 2B (SUR2B) in cultured rat aortic smooth muscle cells (SMC)

T1 sequence (Q63563 whole entry): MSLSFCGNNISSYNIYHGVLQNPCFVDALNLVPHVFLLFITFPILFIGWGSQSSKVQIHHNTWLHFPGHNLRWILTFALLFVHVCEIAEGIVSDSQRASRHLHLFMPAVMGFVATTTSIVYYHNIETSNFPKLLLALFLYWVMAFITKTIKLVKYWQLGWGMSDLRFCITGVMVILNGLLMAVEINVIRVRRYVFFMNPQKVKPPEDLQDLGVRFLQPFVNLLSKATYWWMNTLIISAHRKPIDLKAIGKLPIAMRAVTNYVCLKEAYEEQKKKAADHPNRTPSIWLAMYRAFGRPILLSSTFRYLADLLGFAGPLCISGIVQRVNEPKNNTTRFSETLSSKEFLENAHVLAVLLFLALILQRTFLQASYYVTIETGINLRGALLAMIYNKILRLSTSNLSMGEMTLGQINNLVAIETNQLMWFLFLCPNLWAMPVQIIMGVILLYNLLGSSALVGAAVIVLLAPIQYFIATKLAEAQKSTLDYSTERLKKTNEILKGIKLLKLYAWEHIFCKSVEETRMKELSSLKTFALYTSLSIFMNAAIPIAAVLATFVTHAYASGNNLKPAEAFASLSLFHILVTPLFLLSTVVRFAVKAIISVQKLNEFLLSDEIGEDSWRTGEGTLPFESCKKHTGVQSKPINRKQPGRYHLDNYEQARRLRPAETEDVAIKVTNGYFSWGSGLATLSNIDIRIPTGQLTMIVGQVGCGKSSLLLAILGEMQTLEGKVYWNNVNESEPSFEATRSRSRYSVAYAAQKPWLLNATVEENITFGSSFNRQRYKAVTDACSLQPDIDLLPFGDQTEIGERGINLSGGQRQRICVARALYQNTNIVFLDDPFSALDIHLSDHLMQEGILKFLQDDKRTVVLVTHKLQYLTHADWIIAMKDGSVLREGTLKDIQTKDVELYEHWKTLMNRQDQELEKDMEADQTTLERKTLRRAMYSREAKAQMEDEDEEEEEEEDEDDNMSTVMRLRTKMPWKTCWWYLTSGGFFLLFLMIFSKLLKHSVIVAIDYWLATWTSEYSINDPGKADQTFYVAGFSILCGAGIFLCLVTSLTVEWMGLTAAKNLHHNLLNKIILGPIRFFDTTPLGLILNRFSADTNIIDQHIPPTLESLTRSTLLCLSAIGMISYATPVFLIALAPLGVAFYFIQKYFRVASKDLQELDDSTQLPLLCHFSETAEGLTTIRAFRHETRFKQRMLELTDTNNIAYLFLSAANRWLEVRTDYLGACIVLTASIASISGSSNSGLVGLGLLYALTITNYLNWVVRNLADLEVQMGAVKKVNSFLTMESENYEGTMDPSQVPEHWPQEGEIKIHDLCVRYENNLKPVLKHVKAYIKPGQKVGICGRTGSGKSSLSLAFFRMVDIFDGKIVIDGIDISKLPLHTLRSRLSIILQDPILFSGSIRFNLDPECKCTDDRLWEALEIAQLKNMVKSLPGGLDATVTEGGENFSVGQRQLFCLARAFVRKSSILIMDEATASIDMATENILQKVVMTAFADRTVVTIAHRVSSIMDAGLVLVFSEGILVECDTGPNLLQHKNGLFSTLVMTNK

SMILES	Kd [1] [µM]	Kd [2] [µM]
CC1(C)C=C(n2ccccc2=O)c2cc(S(=O)(=O)Oc3ccccc3)ccc2O1	0.017	0.0028
CC(C)NS(=O)(=O)c1ccc2c(c1)C(n1ccccc1=O)=CC(C)(C)O2	6.61	8.32
CN(c1ccccc1)S(=O)(=O)c1ccc2c(c1)C(n1ccccc1=O)=CC(C)(C)O2	0.02	0.013
CC1(C)C=C(n2ccccc2=O)c2cc(S(=O)(=O)Nc3ccccc3Br)ccc2O1	0.138	0.023
CC1(C)C=C(n2ccccc2=O)c2cc(S(=O)(=O)Nc3ccccc3F)ccc2O1	0.023	0.011
CC1(C)C=C(n2ccccc2=O)c2cc(S(=O)(=O)Nc3ccc(C#N)cc3)ccc2O1	3.16	0.759
CC1(C)C=C(n2ccccc2=O)c2cc(S(=O)(=O)N=[N+]=[N-])ccc2O1	0.015	–
CC1(C)C=C(n2ccccc2=O)c2cc(S(=O)(=O)NC(=O)NC3CCCCC3)ccc2O1	5.62	–
CC1(C)C=C(n2ccccc2=O)c2cc(S(=O)(=O)N3CCOCC3)ccc2O1	0.363	0.186
CC1(C)C=C(n2ccccc2=O)c2cc(S(=O)(=O)NC(=O)Nc3ccccc3)ccc2O1	2.82	–
CC1(C)C=C(n2ccccc2=O)c2cc(S(=O)(=O)Nc3ccc(Br)cc3)ccc2O1	1.7	0.224
CC1(C)C=C(n2ccccc2=O)c2cc(S(N)(=O)=O)ccc2O1	0.316	0.115
COc1ccc(NS(=O)(=O)c2ccc3c(c2)C(n2ccccc2=O)=CC(C)(C)O3)cc1	0.537	0.245
CC1(C)C=C(n2ccccc2=O)c2cc(S(=O)(=O)NC3CCCC3)ccc2O1	1.41	0.537
CC1(C)C=C(n2ccccc2=O)c2cc(S(=O)(=O)F)ccc2O1	0.015	0.0098
CC1(C)C=C(n2ccccc2=O)c2cc(C#N)ccc2O1 [Bimakalim]	0.056	0.01
CC1(C)Oc2ccc(S(=O)(=O)c3ccccc3)cc2[C@@H](N2CCCC2=O)[C@@H]1O [Rilmakalim]	0.027	0.0071

Further compounds by falling Kd [1], results first:

Kd [1] [µM]	Kd [2] [µM]	SMILES
5.25	1	CC1(C)C=C(n2ccccc2=O)c2cc(S(=O)(=O)NCc3ccccc3)ccc2O1
4.47	1.59	CC1(C)C=C(n2ccccc2=O)c2cc(S(=O)(=O)Nc3ccc([N+](=O)[O-])cc3)ccc2O1
0.692	0.457	CC1(C)C=C(n2ccccc2=O)c2cc(S(=O)(=O)NCCO)ccc2O1
0.355	0.115	CCN(CC)S(=O)(=O)c1ccc2c(c1)C(n1ccccc1=O)=CC(C)(C)O2
0.2	0.1	CCNS(=O)(=O)c1ccc2c(c1)C(n1ccccc1=O)=CC(C)(C)O2
0.138	0.065	CC1(C)C=C(n2ccccc2=O)c2cc(S(=O)(=O)c3ccccc3)ccc2O1
0.123	0.063	CN(C)S(=O)(=O)c1ccc2c(c1)C(n1ccccc1=O)=CC(C)(C)O2
0.066	0.055	CNS(=O)(=O)c1ccc2c(c1)C(n1ccccc1=O)=CC(C)(C)O2
0.019	0.0074	[2H]c1c([2H])c([2H])c(NS(=O)(=O)c2ccc3c(c2)C(n2ccccc2=O)=CC(C)(C)O3)c([2H])c1[2H]
0.015	0.0089	CC1(C)C=C(n2ccccc2=O)c2cc(S(=O)(=O)Nc3ccccc3)ccc2O1
